US9121026B2 (priority 2004, dated 2015)

Assays:
Type in all cases: cell-based, Saccharomyces cerevisiae
[1] = test system: RE700A Δpdr1 tok1::PPDR5-HXT7; experiment: Growth inhibition of RE700A Δpdr1 tok1::PPDR5-HXT7 by 2-DG; conditions: RE700A Δpdr1 tok1::PPDR5-HXT7, maltose, 20 h 28° C.
Procedure: (A) Growth inhibition of RE700A i PPDR5-HXT7 (IT[PDR]), RE700A Δpdr1 tok1::PPDR5-HXT7, RE700A Δpdr3 tok1::PPDR5-HXT7 and RE700A Δpdr1,pdr3 tok1::PPDR5-HXT7 at increasing 2-DG concentrations. RE700A i PPDR5-HXT7 (IT[PDR]), RE700A Δpdr1 tok1::PPDR5-HXT7, RE700A Δpdr3 tok1::PPDR5-HXT7 and RE700A Δpdr1,pdr3 tok1::PPDR5-HXT7 were incubated 20 h at 28° C. with Maltose (2% (w/v)) as the sole carbon source and 2-DG concentrations as indicated. The optical density was measured at 600 nm every 15 minutes and the integral under the growth curve was calculated. Inhibition of growth caused by 2-DG is shown in percent. The growth of the strain RE700A tok1::PPDR5-HXT7 (IT[PDR]) was inhibited by 50% at 0.02% (w/v) 2-DG. Growth of the strains RE700A Δpdr1 tok1::PPDR5-HXT7 and RE700A Δpdr3 tok1::PPDR5-HXT7 was inhibited by 50% at 0.026% (w/v) 2-DG.
All strains expressing HXT7 were tested for sensitivity to 2-DG. The strains expressing GFP under the control of PPDR5 were additionally analysed for GFP fluorescence in comparison to RE700Ae PPDR5-GFP (strain CQ[PDR]).

[2] = test system: RE700A Δpdr1 tok1::PPDR5long-HXT7; experiment: Growth of RE700A Δpdr1 tok1::PPDR5long-HXT7 in the presence of 2-DG; conditions: RE700A Δpdr1 tok1::PPDR5long-HXT7, 20 h 28° C.
Procedure: (§1) (B) Relative growth of RE700A tok1::PPDR5long-HXT7, RE700A Δpdr1 tok1::PPDR5long-HXT7, RE700A Δpdr3 tok1::PPDR5long-HXT7 and RE700A Δpdr1,3 tok1::PPDR5long-HXT7 in the presence of 2-DG. Cells were incubated for 20 h at 28° C. with 2-DG at different concentrations. […] The standard error of the mean (n=5) is indicated.

[3] = test system: RE700A Δpdr1,3 tok1::PPDR5long-HXT7; experiment: Growth of RE700A Δpdr1,3 tok1::PPDR5long-HXT7 in the presence of 2-DG
Procedure: as §1

With `O=CC[C@@H](O)[C@H](O)[C@H](O)CO` [2-DG, 2-deoxy-glucose] as the compound, how does the “2-DG concentration for 50% growth inhibition” value [1] read?
Its value is 0.026 % (w/v).

And the “2-DG concentration for 50% growth inhibition” value [2]?
The value was 0.068 % (w/v).

And the “Sensitivity to 2-DG compared with the other PPDR5long-HXT7 strains” value ([3]; RE700A Δpdr1,3 tok1::PPDR5long-HXT7, 20 h 28° C., n=5)?
Its value is “far less sensitive”.

What about the “2-DG concentration for 50% growth inhibition” value ([3]; RE700A Δpdr1,3 tok1::PPDR5long-HXT7, liquid media, 20 h 28° C.) of the same compound?
The value was 0.6 % (w/v).

What about the “Increase of tolerance to 2-DG” value ([3]; RE700A Δpdr1,3 tok1::PPDR5long-HXT7 versus RE700A Δpdr1 tok1::PPDR5long-HXT7) of the same compound?
The value was about 10 fold.
